The nature of data set [1]: Oral bioavailability in rats. Particulars: rat, in vivo, initial studies.
The test system of another data set is AR. To be noted: cited from earlier work.
The conditions of data set [2]: mice, cited from earlier work; for detectability in plasma at 8 hours / peak plasma levels: s.c. 50 mg/kg.
Data set [3] deals with androgen-dependent LAPC4 human prostate tumor xenograft. Particulars: cited from earlier work; for inhibiting the growth of LAPC4 xenograft: in vivo.

We go through two molecules from US9359395B2, “Prodrugs of steroidal CYP17 inhibitors/antiandrogens” (Tokai Pharmaceuticals, Inc., priority 2009, dated 2016).

Each structure is given as a SMILES string.

In general, bioavailability refers to dose-corrected exposure relative to a reference, in per cent. Higher therefore signals good availability. As to `C[C@]12CC[C@H](O)CC1=CCC1C2CC[C@]2(C)C(n3cnc4ccccc43)=CCC12` (stereo partly drawn) [Compound 5, 3-β-hydroxy-17-(1H-benzimidazole-1-yl)androsta-5,16-diene], the bioavailability in data set [1] is about 10%. For the same molecule, the AR antagonist activity entry in the data set with AR is given as “potent pure AR antagonists”. Moreover, in data set [2], the “detectability in plasma at 8 hours” value is on record as “neither was detectable” and the peak plasma levels is reported as 16.82 ng/mL. For the same molecule, in data set [2] (metabolite tentatively identified as 17-(1H-benzimidazol-1-yl)androsta-3-one), the conversion into metabolite entry is reported as “rapidly converted into a metabolite”. Further, in data set [3] (50 mg/kg, twice daily, P=0.00065), the “reduction in the mean final tumor volume compared with controls” value is listed as 93.8%. Also, in data set [3] (50 mg/kg, twice daily), the “efficacy compared with castration” value is on record as “significantly more effective than castration”. Moreover, in data set [3], the “inhibiting the growth of LAPC4 xenograft” value was “very effective”.
With `C[C@]12CCC(=O)C=C1CCC1C2CC[C@]2(C)C(n3cnc4ccccc43)=CCC12` (stereo partly drawn) [Compound 6, 17-(1H-benzimidazole-1-yl)androsta-4,16-diene-3-one], the AR antagonist activity result with AR is on record as “potent pure AR antagonists”. Besides, in data set [2], the “detectability in plasma at 8 hours” value is “neither was detectable” and the peak plasma levels is recorded as 5.15 ng/mL. The “inhibiting the growth of LAPC4 xenograft” value in data set [3] is reported as “ineffective”.
